In patent publication EP4778522A1, “USE OF PYRROLOPYRIMIDINE COMPOUND AND COMPOSITION THEREOF” (Guangzhou Joyo Pharmatech Co., Ltd., priority 2023, dated 2025):
Marks after values point to notes of the source that are not given here.

Tested on: monobenzone-induced mouse vitiligo model
Test: Monobenzone-induced mouse vitiligo model: hair depigmentation area scoring
Format: in vivo, C57BL/6 mice
Parameters: Hair depigmentation area scoring: scale not given here
Protocol: • 1) Animals: C57BL/6 mice, specific pathogen-free (SPF), with equal numbers of females and males. The mice were 6-8 weeks old at grouping, with 10 mice per group. The animals were provided by Charles River Laboratories. • 2) Reagents, positive drugs and test drugs
Monobenzone induction method: after 1 week of adaptive feeding of all the animals, modeling was performed and all black hairs on the back of the mice were removed by a shaver. 10 animals were randomly selected as a normal control group and applied with 50 mg of vaseline once a day; and the remaining 80 animals were used for modeling and applied with 50 mg of 40% monobenzone depigmentation ointment once a day. The applying area of the normal control group and the model group was 2 cm*3 cm of the fixed part of the back, and the modeling was continuously performed for 103 days. In order to prevent the phenomenon that the animals lick the drugs, after the animals were applied with a modeling agent, they needed to be separately placed in an independent cage without padding for a period of time to naturally dry the modeling agent, and then they were placed in a rearing cage for normal rearing. During the modeling process, new hairs grown in the alopecic areas of the backs of the mice were shaved by the shaver and then applied with the drug.
The 40% monobenzone depigmentation ointment was applied every day. After modeling for 53 days, according to a depigmentation area score (see scoring criteria of Table 9), 70 animals successfully modeled in modeling group (score ≥ 2) were randomly divided into 7 groups with 10 mice per group. The mean depigmentation area score of the animals in each group was basically consistent before the administration, and the day of grouping was defined as day 0 of the administration treatment period. Table 8 Grouping and administration regimen
During the whole experiment process, the mice in normal control group (G1) were applied with 50 mg of vaseline once a day; and the mice in each model group (G2-G8) were applied with 50 mg of 40% monobenzone ointment once a day. After modeling for 53 days, the mice were grouped and subjected to drug treatment after grouping consecutively for 50 days. The modeling operation was maintained during the drug intervention period. The mice were applied with the drug twice a day for treatment at an interval of 6 hours or more. […]

## CN(c1ncnc2[nH]ccc12)[C@@H]1CCc2cc(C#N)nn2C1 [compound I]
Day 0 (before administration), 0.5% compound I gel group
  Hair depigmentation area scoring: 3.80
Day 0 (before administration), 1% compound I gel group
  Hair depigmentation area scoring: 3.70
Day 0 (before administration), 2% compound I gel group
  Hair depigmentation area scoring: 3.80
Day 10, 0.5% compound I gel, 30 mg topical twice a day
  Hair depigmentation area scoring: 3.60 **
Day 10, 1% compound I gel, 30 mg topical twice a day
  Hair depigmentation area scoring: 3.90 **
Day 10, 2% compound I gel, 30 mg topical twice a day
  Hair depigmentation area scoring: 4.00 **
Day 20, 0.5% compound I gel, 30 mg topical twice a day
  Hair depigmentation area scoring: 3.60 **
Day 20, 1% compound I gel, 30 mg topical twice a day
  Hair depigmentation area scoring: 3.60 **
Day 20, 2% compound I gel, 30 mg topical twice a day
  Hair depigmentation area scoring: 3.50 **
Day 30, 0.5% compound I gel, 30 mg topical twice a day
  Hair depigmentation area scoring: 3.30 **
Day 30, 1% compound I gel, 30 mg topical twice a day
  Hair depigmentation area scoring: 3.40 **
Day 30, 2% compound I gel, 30 mg topical twice a day
  Hair depigmentation area scoring: 3.10 **
Day 35, 0.5% compound I gel, 30 mg topical twice a day
  Hair depigmentation area scoring: 3.20 **
Day 35, 1% compound I gel, 30 mg topical twice a day
  Hair depigmentation area scoring: 3.10 **
Day 35, 2% compound I gel, 30 mg topical twice a day
  Hair depigmentation area scoring: 2.90 **
Day 38, 0.5% compound I gel, 30 mg topical twice a day
  Hair depigmentation area scoring: 3.20 **
Day 38, 1% compound I gel, 30 mg topical twice a day
  Hair depigmentation area scoring: 2.90 **
Day 38, 2% compound I gel, 30 mg topical twice a day
  Hair depigmentation area scoring: 2.60 **
Day 41, 0.5% compound I gel, 30 mg topical twice a day
  Hair depigmentation area scoring: 2.90 **
Day 41, 1% compound I gel, 30 mg topical twice a day
  Hair depigmentation area scoring: 2.60 **
Day 41, 2% compound I gel, 30 mg topical twice a day
  Hair depigmentation area scoring: 2.30 **
Day 44, 0.5% compound I gel, 30 mg topical twice a day
  Hair depigmentation area scoring: 2.80 **
Day 44, 1% compound I gel, 30 mg topical twice a day
  Hair depigmentation area scoring: 2.50 **
Day 44, 2% compound I gel, 30 mg topical twice a day
  Hair depigmentation area scoring: 2.20 **
Day 47, 0.5% compound I gel, 30 mg topical twice a day
  Hair depigmentation area scoring: 2.60 **
Day 47, 1% compound I gel, 30 mg topical twice a day
  Hair depigmentation area scoring: 2.40 **
Day 47, 2% compound I gel, 30 mg topical twice a day
  Hair depigmentation area scoring: 2.20 **
Day 50, 0.5% compound I gel, 30 mg (5 mg/cm^2), compared with the model control group
  mean inhibitory rate of depigmentation area scores: 52.0%
Day 50, 0.5% compound I gel, 30 mg topical twice a day
  Hair depigmentation area scoring: 2.50 **
Day 50, 1% compound I gel, 30 mg (5 mg/cm^2), compared with the model control group
  mean inhibitory rate of depigmentation area scores: 54.9%
Day 50, 1% compound I gel, 30 mg topical twice a day
  Hair depigmentation area scoring: 2.30 **
Day 50, 2% compound I gel, 30 mg (5 mg/cm^2), compared with the model control group
  mean inhibitory rate of depigmentation area scores: 58.8%
Day 50, 2% compound I gel, 30 mg topical twice a day
  Hair depigmentation area scoring: 2.10 **
Day 50, high concentration (2%) compound I gel, compared with the blank preparation group
  mean inhibitory rate of depigmentation area scores: 51.2%
Day 50, low concentration (0.5%) compound I gel, compared with the blank preparation group
  mean inhibitory rate of depigmentation area scores: 41.9%
Day 50, medium concentration (1%) compound I gel, compared with the blank preparation group
  mean inhibitory rate of depigmentation area scores: 46.5%
